Experimental data: patent US20140243401A1, “METHODS OF SCREENING COMPOUNDS THAT ARE CYTOTOXIC TO TUMOR CELLS AND METHODS OF TREATING TUMOR CELLS USING SUCH COMPOUND” (The Johns Hopkins University, priority 2010, published 2014)
≈ marks a conversion by molar mass, not a printed value. Read-outs that look alike come from different tables or passages of the source.

Experiments:
[1] = target: T1, Type I cytosolic FAS (Homo sapiens, UniProt P49327); assay: Type I cytosolic FAS activity, [14C]malonyl-CoA incorporation into lipid in MCF7 cell lysates; assay type: biochemical; details: MCF7 human breast cancer cell lysates, read-out: IC50, inhibition of Type I cytosolic FAS activity
T1 construct: incorporation into lipid in MCF7 human breast cancer cell lysates; endogenous in cells; host or cells: MCF7 human breast cancer cell lysate
Text: The invention provides for methods that involve determining and/or measuring Type I and mmFAS activity. Methods of measuring Type I FAS activity are known in the art. (See, e.g., U.S. Pat. Nos. 5,759,837 and 5,981,575, which are hereby incorporated by reference in their entirety). For example, Type I FAS activity may be measured in whole cells by monitoring the incorporation of [14C]acetate into total lipids. In cell lysates, Type I FAS activity may be measured by monitoring the incorporation of [14C] from malonyl CoA into total lipids. Alternatively, Type I FAS activity may be determined using purified enzyme with acetyl CoA and malonyl CoA as substrates by measuring incorporation of radioactivity or measuring oxidation of NADPH spectrophotometrically. To test the inhibition of Type I FAS activity, a test compound is added to the reaction mixture.

[2] = target: T2, purified rat liver FAS (Rattus norvegicus, UniProt P12785); assay: purified rat Type I FAS, spectrophotometric NADPH oxidation; assay type: biochemical
T2 construct: Highly purified rat FAS was obtained from starved and induced Sprague-Dawley rat livers; from tissue; host or cells: liver of starved and induced Sprague-Dawley rats
Experimental: Highly purified rat FAS was obtained from starved and induced Sprague-Dawley rat livers by slight modification of a published procedure.xx [Abraham, S.; Smith, S. Methods Enzymol. 1975, 35B, 65-73.]. Enzyme activity was assayed spectrophotometrically by measuring the decrease in extinction at 340 nm that accompanies the oxidation of NADPH during the overall reaction. The enzyme reaction mixture contained 100 mM KH2PO4 (pH 6.6), 1 mM EDTA, 1 mM dithiothreitol (DTT), 0.10 mM acetylCoA, 0.20 mM NADPH, ˜3 μg FAS and escalating concentrations of inhibitor to be tested were combined in a final volume of 1 mL and assayed at 37° C. for 5 min to monitor malonylCoA-independent oxidation of NADPH. FAS activity was then initiated by addition of 0.2 mM malonyl-CoA.

[3] = test system: MCF7 human breast cancer cells; assay: XTT cytotoxicity assay, MCF7; assay type: cell-based
Experimental: (§1) Cytotoxicity can be easily measured using XTT assays, which provide an indication of mitochondrial activity. The XTT assay is a non-radioactive alternative for the [^51Cr] release cytotoxicity assay. XTT is a tetrazolium salt that is reduced to a formazan dye only by metabolically active, viable cells. The reduction of XTT is measured spectrophotometrically as OD490-OD650. Thus, cells that are actively metabolizing will form reaction product when subjected to XTT measurement.
(§2) For this experiment, cells were cultured under standard culture conditions. MCF7 human breast cancer cells were cultured in DMEM containing 5 mM glucose medium with 10% fetal calf serum, 0.01 mg/ml insulin and 1% penicillin/streptomycin. To measure the cytotoxicity of specific compounds against cancer cells, 9×10^3 MCF7 cells were plated per well in 96-well plates. Following overnight culture, the compounds, dissolved in DMSO, were added to the wells in 1 μl volume at specified concentrations. Vehicle controls were run for each experiment. Each condition was run in triplicate. After 24 to 72 h of incubation, cells were incubated for 4 hours with the XTT reagent as per manufacturer's instructions (Cell Proliferation Kit II (XTT) Roche Diagnostics, New Jersey). Plates were read at OD490 on a PerkinElmer Victor 1420. Three wells containing the XTT reagent without cells served as the plate blank. XTT data were reported as OD490.
MCF7 human breast cancer cells were cultured in DMEM containing 1 mM or 5 mM glucose in the medium with 10% fetal calf serum, 0.01 mg/ml insulin and 1% penicillin/streptomycin. The cells were grown in two oxygen conditions, normoxia (21% 02) or hypoxia (1% 02). To measure the cytotoxicity of specific compounds against cancer cells, 9×10^3 MCF7 cells were plated per well in 96-well plates. Following overnight culture, the compounds, dissolved in DMSO, were added to the wells in 1 μl volume at specified concentrations. After 24 to 72 h of incubation, cells were incubated for 4 h with the XTT reagent as per manufacturer's instructions (Cell Proliferation Kit II (XTT) Roche Diagnostics, New Jersey). Plates were read at OD490 on a PerkinElmer Victor 1420. Three wells containing the XTT reagent without cells served as the plate blank. XTT data were reported as OD490Vehicle controls were run for each experiment. Each condition was run in triplicate.

[4] = test system: Human (non-small cell) lung cancer cell lines; assay: XTT cytotoxicity assay, human non-small cell lung cancer cell lines; assay type: cell-based; details: 4 human non-small cell lung cancer cell lines, read-out: LC50 (the source's name)
Experimental: as §1
as §2, with “After 24 to 72 h of incubation, cells were incubated for 4 hours with the XTT reagent as per manufacturer's instructions (Cell Proliferation Kit II (XTT) Roche Diagnostics, New Jersey).” left out, “Three wells containing the XTT reagent without cells served as the plate blank. XTT data were reported as OD490.” left out
Using the XTT assay, LC50 values for C31 were determined for numerous human cancer cell lines and human hepatocytes, as shown in the following table: […]

[5] = test system: MCF 7 cells; assay: clonogenic assay; assay type: cell-based, human; details: MCF 7, FIG. 4(C)
Experimental: In this assay, the effectiveness of specific agents on cell survival and proliferation can be measured in a functional sense. After treatment, surviving cells are re-plated to determine whether the surviving cells are still capable of proliferation. Therefore, this if a more direct measure of cell survival and function.
4×10^5 cells were plated in 25 cm^2 flasks. After overnight culture, cells are treated with compounds for specified times and concentrations. After drug treatment, cells are trypsinized and equal numbers of treated and control cells are plated in triplicate in 60-mm dishes at a density of 500 cells/dish in medium without drugs. Clones are stained and counted after 7-10 days
MCF 7 cells were treated with vehicle, C31 at increasing doses, or Riv7d.

[6] = test system: OVCAR3 human ovarian cancer xenograft; assay: tumor xenograft size, OVCAR3; assay type: in vivo, Athymic Nude mice; details: Study 1129063207, OVCAR-3, oral b.i.d. 11 days, 50 mg/kg
Experimental: Xenograft studies were performed using various mmFAS inhibitors disclosed herein. Human cancer xenograft studies are known in the art. (See Pizer et al., Cancer Res. 56:1189-1193, 1996; Pizer et al., Cancer Res. 60: 213-218, 2000; Testa et al., Oncogene 24: 7455-7464, 2005).
In particular, C31 mouse efficacy studies were conducted in order to evaluate anti-neoplastic activity of C31 in vivo. Athymic Nude mice were implanted with HCT116 human colon, SKOV3 human ovarian or OVCAR3 human ovarian cancer cell lines and were treated when the grown tumor xenografts reached at least 150 to 200 mm^3.^1 ^1 Compounds were solubilized in TEP (80% polyethylene glycol (PEG) 400, 10% ethanol, 10% tween-80) in a volume of 50 μL.

T2 sequence (P12785 whole entry): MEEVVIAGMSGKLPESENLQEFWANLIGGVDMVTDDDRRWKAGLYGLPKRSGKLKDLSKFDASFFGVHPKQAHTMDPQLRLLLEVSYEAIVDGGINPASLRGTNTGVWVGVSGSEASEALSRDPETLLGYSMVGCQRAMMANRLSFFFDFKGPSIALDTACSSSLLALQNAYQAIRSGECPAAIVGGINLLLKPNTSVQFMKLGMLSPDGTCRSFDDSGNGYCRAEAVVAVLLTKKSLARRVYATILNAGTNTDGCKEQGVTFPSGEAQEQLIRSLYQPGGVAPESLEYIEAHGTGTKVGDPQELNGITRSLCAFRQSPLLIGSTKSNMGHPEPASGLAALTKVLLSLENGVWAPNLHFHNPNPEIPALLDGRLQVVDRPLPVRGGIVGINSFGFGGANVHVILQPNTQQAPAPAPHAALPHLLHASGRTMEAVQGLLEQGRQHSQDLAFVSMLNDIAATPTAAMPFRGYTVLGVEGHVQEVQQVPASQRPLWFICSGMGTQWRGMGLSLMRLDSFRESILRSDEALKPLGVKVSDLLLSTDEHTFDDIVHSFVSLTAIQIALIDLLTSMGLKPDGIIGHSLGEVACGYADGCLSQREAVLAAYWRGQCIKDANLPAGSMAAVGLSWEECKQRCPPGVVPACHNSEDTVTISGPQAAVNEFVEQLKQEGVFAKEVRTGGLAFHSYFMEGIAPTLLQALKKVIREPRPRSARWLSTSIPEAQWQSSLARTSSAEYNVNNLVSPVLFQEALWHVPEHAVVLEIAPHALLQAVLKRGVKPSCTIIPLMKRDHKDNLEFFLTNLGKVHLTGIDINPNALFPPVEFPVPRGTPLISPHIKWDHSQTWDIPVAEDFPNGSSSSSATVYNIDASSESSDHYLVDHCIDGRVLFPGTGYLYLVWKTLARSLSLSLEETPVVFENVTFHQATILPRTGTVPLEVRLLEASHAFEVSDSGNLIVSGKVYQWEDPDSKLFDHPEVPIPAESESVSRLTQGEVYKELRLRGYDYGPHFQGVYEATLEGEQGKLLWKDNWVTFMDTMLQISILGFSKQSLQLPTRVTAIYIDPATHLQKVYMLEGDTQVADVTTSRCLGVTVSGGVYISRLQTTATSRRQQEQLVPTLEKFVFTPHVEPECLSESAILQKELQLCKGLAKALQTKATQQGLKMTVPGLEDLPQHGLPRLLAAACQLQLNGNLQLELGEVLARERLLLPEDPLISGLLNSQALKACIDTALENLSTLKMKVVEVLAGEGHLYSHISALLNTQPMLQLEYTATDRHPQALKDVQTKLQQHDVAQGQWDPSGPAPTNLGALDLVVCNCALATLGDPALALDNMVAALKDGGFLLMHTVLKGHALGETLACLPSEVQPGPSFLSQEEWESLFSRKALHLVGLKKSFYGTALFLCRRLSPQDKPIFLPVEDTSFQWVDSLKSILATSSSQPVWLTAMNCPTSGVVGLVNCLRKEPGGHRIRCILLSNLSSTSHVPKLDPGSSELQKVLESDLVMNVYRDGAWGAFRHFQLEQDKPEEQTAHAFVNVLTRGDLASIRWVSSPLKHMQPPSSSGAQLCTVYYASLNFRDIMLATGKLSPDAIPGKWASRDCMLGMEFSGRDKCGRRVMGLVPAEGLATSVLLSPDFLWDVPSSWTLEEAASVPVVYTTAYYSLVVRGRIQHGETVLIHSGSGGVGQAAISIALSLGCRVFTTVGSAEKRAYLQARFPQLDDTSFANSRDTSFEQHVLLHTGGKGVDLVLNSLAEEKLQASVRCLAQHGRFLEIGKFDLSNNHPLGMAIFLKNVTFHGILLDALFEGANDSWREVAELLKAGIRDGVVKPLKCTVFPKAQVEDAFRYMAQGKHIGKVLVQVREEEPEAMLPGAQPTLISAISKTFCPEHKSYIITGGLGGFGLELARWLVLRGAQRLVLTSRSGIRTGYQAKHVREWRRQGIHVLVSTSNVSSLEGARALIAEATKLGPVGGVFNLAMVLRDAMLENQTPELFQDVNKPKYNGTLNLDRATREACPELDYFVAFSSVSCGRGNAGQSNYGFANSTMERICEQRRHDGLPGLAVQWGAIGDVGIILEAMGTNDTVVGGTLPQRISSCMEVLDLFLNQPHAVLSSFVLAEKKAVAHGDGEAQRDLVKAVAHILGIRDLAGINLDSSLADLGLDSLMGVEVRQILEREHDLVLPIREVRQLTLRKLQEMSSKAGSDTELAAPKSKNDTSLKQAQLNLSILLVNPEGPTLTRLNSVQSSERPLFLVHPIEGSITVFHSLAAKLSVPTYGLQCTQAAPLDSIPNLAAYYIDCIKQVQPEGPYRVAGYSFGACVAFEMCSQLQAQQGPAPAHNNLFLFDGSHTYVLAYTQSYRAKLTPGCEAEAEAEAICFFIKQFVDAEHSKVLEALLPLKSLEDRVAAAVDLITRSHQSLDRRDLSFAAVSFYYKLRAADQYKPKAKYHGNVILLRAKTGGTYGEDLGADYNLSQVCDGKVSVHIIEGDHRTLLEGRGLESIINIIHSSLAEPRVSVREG
T1 sequence (P49327 whole entry): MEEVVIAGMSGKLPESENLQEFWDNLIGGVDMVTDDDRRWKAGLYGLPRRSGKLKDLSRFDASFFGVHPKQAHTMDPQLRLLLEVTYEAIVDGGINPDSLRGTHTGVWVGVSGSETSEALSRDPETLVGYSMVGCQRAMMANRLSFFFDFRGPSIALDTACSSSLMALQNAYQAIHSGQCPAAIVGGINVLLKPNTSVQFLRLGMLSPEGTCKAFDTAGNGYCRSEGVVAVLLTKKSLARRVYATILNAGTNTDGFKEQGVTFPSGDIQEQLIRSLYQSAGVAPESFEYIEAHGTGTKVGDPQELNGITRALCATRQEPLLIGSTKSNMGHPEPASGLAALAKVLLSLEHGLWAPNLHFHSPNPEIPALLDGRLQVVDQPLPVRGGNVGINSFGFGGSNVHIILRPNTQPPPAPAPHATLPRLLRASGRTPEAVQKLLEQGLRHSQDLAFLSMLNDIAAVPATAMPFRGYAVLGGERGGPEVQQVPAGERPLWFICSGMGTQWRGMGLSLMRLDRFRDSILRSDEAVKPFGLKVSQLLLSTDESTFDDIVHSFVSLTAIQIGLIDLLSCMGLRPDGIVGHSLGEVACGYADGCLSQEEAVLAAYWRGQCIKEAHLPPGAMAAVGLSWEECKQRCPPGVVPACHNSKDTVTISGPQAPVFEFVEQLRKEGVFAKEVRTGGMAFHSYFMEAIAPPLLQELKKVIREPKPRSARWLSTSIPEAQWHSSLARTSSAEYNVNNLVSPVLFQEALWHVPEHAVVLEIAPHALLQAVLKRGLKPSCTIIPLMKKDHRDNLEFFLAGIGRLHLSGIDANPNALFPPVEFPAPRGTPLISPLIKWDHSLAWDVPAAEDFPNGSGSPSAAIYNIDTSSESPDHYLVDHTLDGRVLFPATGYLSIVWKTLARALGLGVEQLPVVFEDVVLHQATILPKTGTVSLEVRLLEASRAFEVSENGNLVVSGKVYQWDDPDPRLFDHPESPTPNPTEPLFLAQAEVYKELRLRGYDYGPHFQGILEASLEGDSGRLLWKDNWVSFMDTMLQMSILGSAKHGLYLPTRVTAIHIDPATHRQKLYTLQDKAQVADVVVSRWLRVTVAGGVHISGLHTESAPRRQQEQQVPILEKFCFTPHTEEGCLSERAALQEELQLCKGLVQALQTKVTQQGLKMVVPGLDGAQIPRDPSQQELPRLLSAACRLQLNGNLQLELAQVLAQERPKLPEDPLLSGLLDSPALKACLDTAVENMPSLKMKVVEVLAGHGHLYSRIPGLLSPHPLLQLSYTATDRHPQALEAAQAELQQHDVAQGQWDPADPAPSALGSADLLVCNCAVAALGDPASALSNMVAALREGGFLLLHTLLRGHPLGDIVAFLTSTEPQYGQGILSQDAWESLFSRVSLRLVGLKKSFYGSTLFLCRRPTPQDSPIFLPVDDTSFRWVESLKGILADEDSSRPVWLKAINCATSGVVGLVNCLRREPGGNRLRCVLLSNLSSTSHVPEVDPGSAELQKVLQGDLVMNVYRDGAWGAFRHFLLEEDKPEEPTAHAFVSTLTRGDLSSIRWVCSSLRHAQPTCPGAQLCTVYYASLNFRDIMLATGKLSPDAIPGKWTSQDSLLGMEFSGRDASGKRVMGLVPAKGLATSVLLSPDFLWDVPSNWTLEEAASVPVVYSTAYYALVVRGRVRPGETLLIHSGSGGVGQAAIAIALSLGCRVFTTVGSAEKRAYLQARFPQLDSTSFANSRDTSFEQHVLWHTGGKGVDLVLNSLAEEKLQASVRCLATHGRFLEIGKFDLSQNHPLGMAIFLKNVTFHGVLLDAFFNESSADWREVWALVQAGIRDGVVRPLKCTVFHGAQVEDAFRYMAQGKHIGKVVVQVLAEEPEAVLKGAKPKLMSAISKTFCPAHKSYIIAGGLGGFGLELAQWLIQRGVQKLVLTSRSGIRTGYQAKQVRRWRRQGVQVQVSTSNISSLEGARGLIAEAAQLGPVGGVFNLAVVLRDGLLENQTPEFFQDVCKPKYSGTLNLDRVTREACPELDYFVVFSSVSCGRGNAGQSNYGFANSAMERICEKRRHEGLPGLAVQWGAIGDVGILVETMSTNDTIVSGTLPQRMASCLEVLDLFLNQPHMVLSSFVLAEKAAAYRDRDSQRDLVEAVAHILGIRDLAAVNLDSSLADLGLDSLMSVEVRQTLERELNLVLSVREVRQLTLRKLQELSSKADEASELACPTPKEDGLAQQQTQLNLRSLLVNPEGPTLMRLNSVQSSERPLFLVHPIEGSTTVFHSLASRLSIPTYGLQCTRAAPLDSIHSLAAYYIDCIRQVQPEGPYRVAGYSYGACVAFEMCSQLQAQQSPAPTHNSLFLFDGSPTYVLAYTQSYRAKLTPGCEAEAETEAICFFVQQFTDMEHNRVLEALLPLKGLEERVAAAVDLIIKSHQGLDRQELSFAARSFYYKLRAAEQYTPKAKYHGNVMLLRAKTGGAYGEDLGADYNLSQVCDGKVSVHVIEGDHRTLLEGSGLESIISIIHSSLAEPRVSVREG

## CCCCCCCCC1(C)SC(=O)C=C1OCC(=O)Nc1ccc(Cl)cc1 (centres unmarked) [Compound C31]
[1]
  IC50: 17.8 µM
[2]
  IC50: 42 µM
[2]; approximate
  IC50: ~41 µM
[3]; MCF7, 1 mM or 5 mM glucose, 1% or 21% O2, FIG. 9
  cytotoxicity (XTT): increases if the cells are hypoglycemic and even more if the cells are hypoxic
[3]; MCF7, standard culture, FIG. 4 A, B
  cytotoxicity / cell viability (XTT): concentration-dependent cytotoxicity
[4]
  CC50: 4 to 8 mg/L (≈ 9.76 to 19.5 µM)
[5]
  viability in clonogenic assay: dose-dependent decrease in viability
[6]
  Average Tumor Size Endpoint (% Change): −59 % Change
